# Columns and labels:
# Solubility of substrate = format: physicochemical; conditions: read-out: S: Solubility
# [1] = Maximum wavelength of formed pigment; format: physicochemical
# Procedure: 50 μl of 1 mM each free compound was added to 3 ml of 0.1M phosphate buffer containing 0.5 mg/ml EMSE and 1 U/ml laccase and the mixture was incubated at 37° C. for 5 minutes. The absorption of the reaction solution at λmax was measured. As a control, 5-aminosalicylic acid was used and the reaction of the compound with 2,6-xylenol was carried out in the presence of metaperiodate under strong alkaline conditions.
# Stability of pigment = format: physicochemical
# [2] = target: T1, γ-glutamyltranspeptidase (γ-GTP) (Homo sapiens, UniProt P19440); test: γ-GTP determination in serum (Example 3); format: biochemical; conditions: found with the compound as substrate; standard serum 235 mU/ml; 37° C., 5 minutes; wavelength of Table 2
# T1 construct: from tissue; host or cells: serum
# Procedure: In this example, 500 mg of compound Nos. 1, 3, 5, 7 and 9 each and 500 mg of glycylglycine were dissolved in 100 ml (pH=7.7) and 0.1M phosphate buffer. The resultant solutions were designated A-1, A-3, A-5, A-7 and A-9, respectively. 50 mg of 3-{N-(m-tolyl)-N-ethyl}amino-2-hydroxypropane sulfonic acid was dissolved in 100 ml of phosphate buffer solution to obtain solution B. 50 mg/ml sodium meta-periodate containing 1N-HCl solution was prepared as solution C.
# 6 ml of solution A-1, A-3, A-5, A-7 or A-9 was equally poured to 3 test tubes. The samples were incubated at 37° C. and to the solution was added […] of (a) serum sample (b) standard serum or (c) water. The mixtures were stirred and heated for 5 minutes. After 5 minutes had passed, 1 ml of solution B and 1 ml of solution C were added to each of the mixtures and the mixtures were incubated for 10 minutes after stirring. As the standard serum, a serum having 235 mU/ml of γ-GTP was used.
# The γ-GTP activity of the serum sample can be calculated by the following equation. [formula]
# [3] = system: leucine aminopeptidase (LAP); test: LAP determination in serum, absorption change per minute (Example 1); format: biochemical
# Procedure: 3 ml of the reagent solution was incubated at 37° C. for ten minutes. To the solution was added 0.05 ml of a serum sample and the mixture was immediately stirred and the change in absorption of the solution at 745 nm was measured for one minute.
# LAP activity in the sample can be calculated using the following equation: [formula] ΔE means the amount of absorption change per minute.
# The same procedures as described above were repeated except that the following materials were used. […]
# [4] = system: leucine aminopeptidase (LAP); test: LAP determination in serum, end-point colour reactions (Example 2); format: biochemical
# Procedure: The reagent solution wherein laccase was excluded from the reagent solution of Example 1 was used.
# 3 ml of the reagent solution was incubated at 37° C. for 10 minutes and to the mixture was added 0.05 ml of a serum sample. The mixture was immediately stirred and incubated at 37° C. for 10 minutes. After ten minutes passed,
# (a) 0.03 ml of 10 mg/ml α-naphthol methanol solution and 0.1 ml of 1N-NaOH solution containing 50 mg/ml sodium salt of meta-periodate were added to the solution. The mixture was incubated at 37° C. for 10 minutes and the absorption of the reaction solution at 600 nm was measured.
# (b) 1 ml of 10 mg/ml p-N,N-dimethylamino cinnamaldehyde ethanol solution and 1 ml of 0.4N-HCl solution were added to the solution and the mixture was incubated at 37° C. for 10 minutes. The absorption of the reaction solution at 570 nm was measured.
# (c) 0.5 ml of 1N-HCl and 0.5 ml of 1 mg/ml sodium nitrite were added to the solution and the mixture was incubated at 37° C. for 10 minutes. Then 0.1 ml of 1 mg/ml 3,5-xylenol ethanol solution was added thereto and the absorption of the reaction solution at 650 nm was measured.
# [5] = Serum(1), 37° C., 745 nm Compound No. 2, 635 nm (a), 565 nm (b), 675 nm (c)
# T1 sequence (P19440 1-380 limits assumed): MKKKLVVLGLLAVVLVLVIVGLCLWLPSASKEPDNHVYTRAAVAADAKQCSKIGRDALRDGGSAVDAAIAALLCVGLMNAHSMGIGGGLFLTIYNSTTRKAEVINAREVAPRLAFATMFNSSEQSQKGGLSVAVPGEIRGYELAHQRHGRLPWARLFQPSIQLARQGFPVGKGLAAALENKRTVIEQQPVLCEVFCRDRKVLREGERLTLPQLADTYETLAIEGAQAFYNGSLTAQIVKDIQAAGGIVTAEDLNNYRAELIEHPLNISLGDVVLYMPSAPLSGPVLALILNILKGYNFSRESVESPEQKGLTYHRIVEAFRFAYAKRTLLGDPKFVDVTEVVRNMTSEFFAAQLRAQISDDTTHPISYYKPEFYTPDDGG
# T1 sequence (P19440 381-569 limits assumed): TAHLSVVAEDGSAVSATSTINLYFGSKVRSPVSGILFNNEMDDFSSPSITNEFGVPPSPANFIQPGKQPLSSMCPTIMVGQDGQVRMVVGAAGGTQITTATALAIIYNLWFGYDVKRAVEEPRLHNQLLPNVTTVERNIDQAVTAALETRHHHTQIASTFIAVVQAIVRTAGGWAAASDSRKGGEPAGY
smiles,measurement,setting,value
COC(=O)c1cc(NC(=O)[C@@H](N)CC(C)C)ccc1N(CCCCS(=O)(=O)O)CCCCS(=O)(=O)O [compound 13],solubility,Solubility of substrate,> 200 mg/mL
same,λmax: Maximum wavelength,[1],705 nm
same,ST: Stability of pigment,Stability of pigment,> 98%
COc1cc(N(CCCCS(=O)(=O)O)CCCCS(=O)(=O)O)c(C)cc1NC(=O)[C@@H](N)CC(C)C [compound 14],solubility,Solubility of substrate,> 200 mg/mL
same,λmax: Maximum wavelength,[1],720 nm
same,ST: Stability of pigment,Stability of pigment,> 98%
CCN(CC(O)CS(=O)(=O)O)c1ccc(NC(=O)CC[C@H](N)C(=O)O)cc1 (some centres unmarked) [compound 5],solubility,Solubility of substrate,170 mg/mL
same,λmax: Maximum wavelength,[1],740 nm
same,ST: Stability of pigment,Stability of pigment,> 98%
same,γ-GTP activity of the serum sample,[2],236 mU/ml
"CCN(CC)c1ccc(NC(=O)[C@@H](N)CC(C)C)cc1 [(c), L-leucil-p-N,N-- diethylaminoanilide]",amount of absorption change per minute,"[3]; Serum (2), same wavelengths",0.0095
same,amount of absorption change per minute,"[3]; Serum (3), same wavelengths",0.0150
same,amount of absorption change per minute,"[3]; Serum (4), same wavelengths",0.0145
same,amount of absorption change per minute,"[3]; Serum (5), same wavelengths",0.0116
same,amount of absorption change per minute,"[3]; Serum (6), same wavelengths",0.0126
same,amount of absorption change per minute,"[3]; Serum (7), same wavelengths",0.0113
same,amount of absorption change per minute,"[3]; Serum (8), same wavelengths",0.0150
same,amount of absorption change per minute,"[3]; Serum (9), same wavelengths",0.0138
same,amount of absorption change per minute,"[3]; Serum (10), same wavelengths",0.0133
same,amount of absorption change per minute,[3]; [5],0.0158
"CC(C)C[C@H](N)C(=O)Nc1ccc(O)c(C(=O)O)c1 [Control, reference compound]",solubility,Solubility of substrate,< 20 mg/mL
same,λmax: Maximum wavelength,[1],615 nm
same,ST: Stability of pigment,Stability of pigment,90%
CCN(CC(O)CS(=O)(=O)O)c1ccc(NC(=O)[C@@H](N)CC(C)C)cc1 (some centres unmarked) [compound 6],solubility,Solubility of substrate,90 mg/mL
same,λmax: Maximum wavelength,[1],740 nm
same,ST: Stability of pigment,Stability of pigment,> 98%
"CC(C)C[C@H](N)C(=O)Nc1ccc([N+](=O)[O-])cc1 [(b), L-leucil-p-nitroanilide]",amount of absorption change per minute,"[3]; Serum (2), same wavelengths",0.0054
same,amount of absorption change per minute,"[3]; Serum (3), same wavelengths",0.0090
same,amount of absorption change per minute,"[3]; Serum (4), same wavelengths",0.0089
same,amount of absorption change per minute,"[3]; Serum (5), same wavelengths",0.0071
same,amount of absorption change per minute,"[3]; Serum (6), same wavelengths",0.0071
same,amount of absorption change per minute,"[3]; Serum (7), same wavelengths",0.0074
same,amount of absorption change per minute,"[3]; Serum (8), same wavelengths",0.0086
same,amount of absorption change per minute,"[3]; Serum (9), same wavelengths",0.0082
same,amount of absorption change per minute,"[3]; Serum (10), same wavelengths",0.0079
same,amount of absorption change per minute,[3]; [5],0.0071
"CC(C)C[C@H](N)C(=O)Nc1ccc(N(CCCS(=O)(=O)O)CCCS(=O)(=O)O)cc1 [Compound No. 2, L-leucyl-p-N,N-disulfopropyl aminoanilide]",Ratio of sensitivity,"[4]; Example 1 method (EMSE + laccase, 745 nm), reference",100
same,absorption of the reaction solution,"[4]; method (a) α-naphthol + meta-periodate/NaOH, 600 nm, Serum 1",0.331
same,absorption of the reaction solution,"[4]; method (a), 600 nm, Serum 2",0.291
same,absorption of the reaction solution,"[4]; method (a), 600 nm, Serum 3",0.389
same,absorption of the reaction solution,"[4]; method (a), 600 nm, Serum 4",0.395
same,absorption of the reaction solution,"[4]; method (a), 600 nm, Serum 5",0.277
same,absorption of the reaction solution,"[4]; method (a), 600 nm, Serum 6",0.322
same,absorption of the reaction solution,"[4]; method (a), 600 nm, Serum 7",0.291
same,absorption of the reaction solution,"[4]; method (a), 600 nm, Serum 8",0.386
same,absorption of the reaction solution,"[4]; method (a), 600 nm, Serum 9",0.392
same,absorption of the reaction solution,"[4]; method (a), 600 nm, Serum 10",0.346
same,Ratio of sensitivity,"[4]; method (a), relative to Example 1 = 100",73
same,absorption of the reaction solution,"[4]; method (b) p-N,N-dimethylamino cinnamaldehyde/HCl, 570 nm, Serum 1",0.386
same,absorption of the reaction solution,"[4]; method (b), 570 nm, Serum 2",0.336
same,absorption of the reaction solution,"[4]; method (b), 570 nm, Serum 3",0.466
same,absorption of the reaction solution,"[4]; method (b), 570 nm, Serum 4",0.460
same,absorption of the reaction solution,"[4]; method (b), 570 nm, Serum 5",0.320
same,absorption of the reaction solution,"[4]; method (b), 570 nm, Serum 6",0.372
same,absorption of the reaction solution,"[4]; method (b), 570 nm, Serum 7",0.333
same,absorption of the reaction solution,"[4]; method (b), 570 nm, Serum 8",0.453
same,absorption of the reaction solution,"[4]; method (b), 570 nm, Serum 9",0.460
same,absorption of the reaction solution,"[4]; method (b), 570 nm, Serum 10",0.405
same,Ratio of sensitivity,"[4]; method (b), relative to Example 1 = 100",85
same,absorption of the reaction solution,"[4]; method (c) sodium nitrite/HCl then 3,5-xylenol, 650 nm, Serum 1",0.277
same,absorption of the reaction solution,"[4]; method (c), 650 nm, Serum 2",0.241
same,absorption of the reaction solution,"[4]; method (c), 650 nm, Serum 3",0.330
same,absorption of the reaction solution,"[4]; method (c), 650 nm, Serum 4",0.325
same,absorption of the reaction solution,"[4]; method (c), 650 nm, Serum 5",0.230
same,absorption of the reaction solution,"[4]; method (c), 650 nm, Serum 6",0.270
same,absorption of the reaction solution,"[4]; method (c), 650 nm, Serum 7",0.244
same,absorption of the reaction solution,"[4]; method (c), 650 nm, Serum 8",0.325
same,absorption of the reaction solution,"[4]; method (c), 650 nm, Serum 9",0.331
same,absorption of the reaction solution,"[4]; method (c), 650 nm, Serum 10",0.292
same,Ratio of sensitivity,"[4]; method (c), relative to Example 1 = 100",61
same,solubility,Solubility of substrate,130 mg/mL
same,λmax: Maximum wavelength,[1],745 nm
same,ST: Stability of pigment,Stability of pigment,> 98%
same,amount of absorption change per minute,"[3]; Serum (2), same wavelengths",0.0395
same,amount of absorption change per minute,"[3]; Serum (3), same wavelengths",0.0543
same,amount of absorption change per minute,"[3]; Serum (4), same wavelengths",0.0541
same,amount of absorption change per minute,"[3]; Serum (5), same wavelengths",0.0382
same,amount of absorption change per minute,"[3]; Serum (6), same wavelengths",0.0437
same,amount of absorption change per minute,"[3]; Serum (7), same wavelengths",0.0400
same,amount of absorption change per minute,"[3]; Serum (8), same wavelengths",0.0532
same,amount of absorption change per minute,"[3]; Serum (9), same wavelengths",0.0537
same,amount of absorption change per minute,"[3]; Serum (10), same wavelengths",0.0476
same,amount of absorption change per minute,[3]; [5],0.0454

# — US4877727A, “Substrate for determining leucine aminopeptidase or gamma-glutamyltranspeptase activity” (Kyowa Medex Co., Ltd., priority 1984, dated 1989)
